Results as given in patent EP0728012B1, “NOVEL GnRH ANALOGUES WITH ANTITUMOUR EFFECTS AND PHARMACEUTICAL COMPOSITIONS THEREOF” (Lovas, Sandor, priority 1994, dated 1996).

Columns and labels:
[1] = tested on: MCF-7 human mammary carcinoma cell line; experiment: Inhibition of colony formation (dose-survival relation, Example 18); assay type: cell-based; conditions: 50 µM (active substance), treated once
[2] = tested on: MDA-MB-231 human mammary carcinoma cell line; experiment: as above; assay type: cell-based; conditions: 50 µM
[3] = tested on: PC3 human prostate carcinoma cell line; experiment: as above; assay type: cell-based; conditions: 50 µM
Ishikawa = experiment: Inhibition of colony formation by GnRH analogues (dose-survival, Example 48); assay type: cell-based, human; conditions: within the dose range used (1-50 µM)
MCF-7 [4] = experiment: as above; assay type: cell-based, human; conditions: 50 µM, treated once
MDA-MB-231 [5] = experiment: as above; assay type: cell-based, human; conditions: 50 µM
PC3 = experiment: as above; assay type: cell-based, human; conditions: within the dose range used (1-50 µM)
MDA-MB-231 xenograft = experiment: In vivo antitumour effect on MDA-MB-231 xenograft in immunosuppressed mice; design: species or system CBA/Ca mice; conditions: for Volume (cm^3) of tumours / Weight (g) of tumours: after 9 week treatment
Procedure: The immunosuppression of mice was carried out by using the method of Steel et al. [Br. J. Cancer, 37, 224-230 (1978)]. Immunosuppression and xeno-transplantation
CBA-Ca female mice of about 6 weeks old were thymectomized and then, after one week, they were irradiated with 60Co (whole body irradiation; the lethal dose is 9.5 Gray). Within 24 hours 3 to 5 x 10^5 myelocytes were injected into the animals. Beneath the skin of the immunosuppressed mice 2 x 10^7 tumour cells or, in the case of later passages, […] were implanted. […] The treatment with steroid hormone was stopped by at least one week before beginning the investigation.
Recent investigations have begun on 28 animals bearing MCF-7 xenograft and on 28 animals bearing MDA-MB-231 xenograft. On animals bearing MCF-7 tumour the treatment was commenced in the 5th week following xeno-transplantation; the tumour volume was 205 to 225 mm^3. On animals bearing MDA-MB-231 tumour, the treatment was started in the 4th week after xeno-transplantation with a tumour volume of 140 to 150 mm^3. […] The control groups were daily treated with physiological saline s.c. (Each treated group consisting of 7 animals).
A more recent study was started on 28 animals bearing MDA-MB-231 xenograft. The treatment was begun in the 4th or 5th week following xenotransplantation. The tumour volume was 0.165 to 0.194 cm^3. […] (For treatment of the control group, see the preceding Examples). Each group consisted of 7 animals.

rat hypophysis = conditions: superfusion, relative to human GnRH; cited from earlier work
[6] = prolonged treatment for three cycles; high doses; cited from earlier work
[7] = tested on: Ishikawa human endometrium carcinoma cell line; experiment: Inhibition of colony formation (dose-survival relation, Example 18); assay type: cell-based; conditions: 50 µM
human tumour cell lines = experiment: Inhibition of colony formation (Example 18), cell line not given; assay type: cell-based; conditions: on any cell line (Table 1)
Procedure: The investigation gives a precise information about the cell-damaging effect of the tested substance. In the case of cytostatics the cell-damaging effect is not cell-specific. […] One part of the arrested cells again go into the cycle, the other part may perish (apoptosis). […] The investigations were carried out on MCF-7 and MDA-MB-231 human mammary carcinoma cell lines, PC3 human prostate 15 carcinoma cell line and Ishikawa human endometrium carcinoma cell line. Three hundred cells were set into Petri dishes of 3.5 cm in diameter each. The treatment was carried out once, 24 hours following the explantation, then the colonies formed were counted after 9 to 12 days.

MCF-7 [8] = conditions: MCF-7; 30 µM active substance; conjugate, treated once; cell count on 7th day; listed as 11. P-GFLG-GnRH-III
Procedure: (§1) The procedure of treatment was as follows. After trypsinization the cells, 400,000 cells of MCF-7, MDA-MB-231 human mammary carcinoma, PC3 human prostate carcinoma or Ishikawa human endometrium tumour each were passed into Petri dishes of 10 cm in diameter. Starting from the day following transfer, the cells were treated with the substances to be tested in solution prepared with the nutrient medium during the exponential growth phase. […]

MDA-MB-231 [9] = conditions: MDA-MB-231; 30 µM active substance; conjugate, treated once; listed as 11. P-GFLG-GnRH-III
Procedure: as §1

[10] = Ovulation / cycle of female rats during prolonged treatment; assay type: in vivo; conditions: high dose of the coupled GnRH-III; three cycles observed
From the text: In 1993, researchers isolated and synthesized the Lamprey-III-GnRH decapeptide from lamprey (Petromyzon marinus) (p[…]NH2). This Lamprey-III-GnRH (herein below GnRH-III) exerts a significant tumour growth-inhibiting effect on human mammary tumour cell lines.

[11] = MDA-MB-231 xenograft, 100 µg daily s.c.
[12] = Table V, treatment week 2, 1x100 µg daily s.c.
[13] = Table V, treatment week 4, 1x100 µg daily s.c.
[14] = Table V, treatment week 6, 1x100 µg daily s.c.
[15] = week 0, daily s.c., 1 x 100 µg series
[16] = week 1, daily s.c., 1 x 100 µg series
[17] = week 2, daily s.c., 1 x 100 µg series
[18] = week 3, daily s.c., 1 x 100 µg series
[19] = week 4, daily s.c., 1 x 100 µg series
[20] = week 5, daily s.c., 1 x 100 µg series
[21] = week 6, daily s.c., 1 x 100 µg series
[22] = week 7, daily s.c., 1 x 100 µg series

Compound | % Inhibition of colony formation [1] | % Inhibition of colony formation [3] | Volume (cm^3) of tumours (MDA-MB-231 xenograft; [11]) | Weight (g) of tumours (MDA-MB-231 xenograft; [11]) | Inhibition % (MDA-MB-231 xenograft; [12]) | Tumour volume as control (%) (MDA-MB-231 xenograft; [12]) | Inhibition % (MDA-MB-231 xenograft; [13]) | Tumour volume as control (%) (MDA-MB-231 xenograft; [13]) | Inhibition % (MDA-MB-231 xenograft; [14]) | Tumour volume as control (%) (MDA-MB-231 xenograft; [14]) | Tumour volume (cm^3) (MDA-MB-231 xenograft; [15]) | Tumour volume as control (%) (MDA-MB-231 xenograft; [15]) | Tumour volume (cm^3) (MDA-MB-231 xenograft; [16]) | Tumour volume as control (%) (MDA-MB-231 xenograft; [16]) | Tumour volume (cm^3) (MDA-MB-231 xenograft; [17]) | Tumour volume as control (%) (MDA-MB-231 xenograft; [17]) | Tumour volume (cm^3) (MDA-MB-231 xenograft; [18]) | Tumour volume as control (%) (MDA-MB-231 xenograft; [18]) | Tumour volume (cm^3) (MDA-MB-231 xenograft; [19]) | Tumour volume as control (%) (MDA-MB-231 xenograft; [19]) | other results
NCCCC[C@H](NC(=O)[C@H](Cc1c[nH]c2ccccc12)NC(=O)[C@H](CC(=O)O)NC(=O)[C@H](Cc1c[nH]cn1)NC(=O)[C@H](CO)NC(=O)[C@H](Cc1c[nH]c2ccccc12)NC(=O)[C@H](Cc1c[nH]cn1)NC(=O)[C@@H]1CCC(=O)N1)C(=O)N1CCC[C@H]1C(=O)NCC(N)=O [GnRH-III, reference compound] | 65% | 21% | 2.017 ± 0.585 cm^3 | 1.84 ± 0.52 g | 14% | 86% | 15% | 85% | 15% | 85% | 0.19 cm^3 | 115% | 0.26 cm^3 | 113% | 0.36 cm^3 | 86% | 0.47 cm^3 | 85% | 0.55 cm^3 | 85% | % Inhibition of colony formation [2]: 69%; inhibition of colony formation (Ishikawa): did not inhibit; % Inhibition of the colony formation (MCF-7 [4]): 45%; % Inhibition of the colony formation (MDA-MB-231 [5]): 49%; inhibition of colony formation (PC3): 21%; rate of tumour growth (MDA-MB-231 xenograft; [11]): did not inhibit; Tumour volume (cm^3) (MDA-MB-231 xenograft; [20]): 0.81 cm^3; Tumour volume as control (%) (MDA-MB-231 xenograft; [20]): 87%; Tumour volume (cm^3) (MDA-MB-231 xenograft; [21]): 1.04 cm^3; Tumour volume as control (%) (MDA-MB-231 xenograft; [21]): 85%; Tumour volume (cm^3) (MDA-MB-231 xenograft; [22]): 1.28 cm^3; Tumour volume as control (%) (MDA-MB-231 xenograft; [22]): 101%; LH-releasing effect (rat hypophysis): about thousand times weaker than that of the human GnRH; ovulation of female rats [6]: did not inhibit the ovulation
{Lys[n-poly(N-vinylpyrrolidone-co-maleic acid)-Gly-Phe-Leu-Gly-]}^8,-GnRH-III [P-GFLG-GnRH-III] | 9% | 16% | 0.613 ± 0.307 cm^3 | 0.45 ± 0.4 g | 20% | 80% | 36% | 64% | 67% | 33% | 0.17 cm^3 | 104% | 0.25 cm^3 | 107% | 0.33 cm^3 | 80% | 0.40 cm^3 | 72% | 0.41 cm^3 | 64% | % Inhibition of colony formation [7]: 15%; inhibition of colony formation (human tumour cell lines): ≤ 16%; % Inhibition of cell division (proliferation) (MCF-7 [8]): 10%; % Inhibition of cell division (proliferation) (MDA-MB-231 [9]): 11%; animals that became tumour-free (MDA-MB-231 xenograft; MDA-MB-231 xenograft, 100 µg daily s.c., 6th week of treatment): 2 animals from 7; Tumour volume (cm^3) (MDA-MB-231 xenograft; [20]): 0.49 cm^3; Tumour volume as control (%) (MDA-MB-231 xenograft; [20]): 53%; Tumour volume (cm^3) (MDA-MB-231 xenograft; [21]): 0.40 cm^3; Tumour volume as control (%) (MDA-MB-231 xenograft; [21]): 32%; Tumour volume (cm^3) (MDA-MB-231 xenograft; [22]): 0.31 cm^3; Tumour volume as control (%) (MDA-MB-231 xenograft; [22]): 24%; cycle of female rats (castration effect) [10]: not influenced
